According to publication PMC7904550, “Application of grouping and read-across for the evaluation of parabens of different chain lengths with a particular focus on endocrine properties” (Archives of Toxicology, 2021):
Read-outs that look alike come from different tables or passages of the source. Marks after values point to notes of the source that are not given here.

Columns and labels:
[1] = Acid dissociation constant (pKa); format: physicochemical; conditions: OECD TG 112; read-out: pKa
Excerpt: Generally, these parabens have very similar physico-chemical properties.

rats = test: Genetic toxicity in vivo (rats); set-up: species or system rat; conditions: in vivo OECD TG 478 overriding in vitro OECD TG 473
Wistar rats [2] = test: Higher-tier studies taken together (OECD TG 408, 414, 421/422, 443): NOAEL; conditions: over all higher-tier studies
Experimental: All in vivo studies were conducted as oral gavage studies, selecting the oral route as most appropriate route of administration to reflect the worst-case exposure scenario. […] The OECD TG 443 included mating of first generation (F1) offspring to produce a second generation (F2), and the DIT and DNT cohorts.

oestrogen receptors = test system: oestrogen receptors; set-up: method as in Byford et al. 2002; conditions: ref Byford et al. 2002; cited from earlier work
mammalian cells = conditions: OECD 473 or 487; ref ECHA dissemination portal; cited from earlier work
Wistar rats [3] = conditions: ref Food and Drug Research Laboratories 1972, cited from earlier work; for NOAEL, developmental toxicity: similar to OECD 414, conducted 1972, highest dose tested, GD 6–15

COC(=O)c1ccc(O)cc1 [Methyl paraben, Methyl 4-hydroxybenzoate]
pKa [1]: 8.4
Overall WoE conclusion on genotoxicity (rats): [d] While methyl paraben exhibited in vitro clastogenicity with metabolic activation in an OECD TG 473 study, absence of in vivo clastogenicity in an OECD TG 478 study is overriding in the WoE evaluation so that the overall WoE conclusion is absence of genotoxicity
NOAEL: Accessory sex organs HP (Wistar rats [2]): 1000 / 1000 mg/kg bw/day
NOAEL: Adrenals HP (Wistar rats [2]): 1000 / 1000 mg/kg bw/day
NOAEL: Adrenals weight (Wistar rats [2]): 1000 / 1000 mg/kg bw/day
NOAEL: Age at balano-preputial separation (Wistar rats [2]): 1000 / 1000 mg/kg bw/day
NOAEL: Age at vaginal opening (Wistar rats [2]): 1000 / 1000 mg/kg bw/day
NOAEL: Anogenital distance (Wistar rats [2]): 1000 / 1000 mg/kg bw/day
NOAEL: Auditory startle (Wistar rats [2]): 1000 / 1000 mg/kg bw/day
NOAEL: Brain HP (Wistar rats [2]): 1000 / 1000 mg/kg bw/day
NOAEL: Brain morphometric evaluation (Wistar rats [2]): 1000 / 1000 mg/kg bw/day
NOAEL: Brain weight (Wistar rats [2]): 1000 / 1000 mg/kg bw/day
NOAEL: Cervix HP (Wistar rats [2]): 1000 / 1000 mg/kg bw/day
NOAEL: Coagulating gland HP (Wistar rats [2]): 1000 / 1000 mg/kg bw/day
NOAEL: Coagulating gland weight (Wistar rats [2]): 1000 / 1000 mg/kg bw/day
NOAEL: Colloid area (thyroid HP) (Wistar rats [2]): 1000 / 1000 mg/kg bw/day
NOAEL: Dystocia (Wistar rats [2]): 1000 / 1000 mg/kg bw/day
NOAEL: Epididymis HP (Wistar rats [2]): 1000 / 1000 mg/kg bw/day
NOAEL: Epididymis weight (Wistar rats [2]): 1000 / 1000 mg/kg bw/day
NOAEL: Fertility (Wistar rats [2]): 1000 / 1000 mg/kg bw/day
NOAEL: Foetal development (Wistar rats [2]): 1000 / 1000 mg/kg bw/day
NOAEL: Functional observation battery (Wistar rats [2]): 1000 / 1000 mg/kg bw/day
NOAEL: Genital abnormalities (Wistar rats [2]): 1000 / 1000 mg/kg bw/day
NOAEL: Gestation length (Wistar rats [2]): 1000 / 1000 mg/kg bw/day
NOAEL: Litter / pup weight (Wistar rats [2]): 1000 / 1000 mg/kg bw/day
NOAEL: Litter size (Wistar rats [2]): 1000 / 1000 mg/kg bw/day
NOAEL: Litter viability (Wistar rats [2]): 1000 / 1000 mg/kg bw/day
NOAEL: Liver weight (Wistar rats [2]): 1000 / 1000 mg/kg bw/day
NOAEL: Mammary gland HP; females (Wistar rats [2]): 1000 / 1000 mg/kg bw/day
NOAEL: Mammary gland HP; males (Wistar rats [2]): 1000 / 1000 mg/kg bw/day
NOAEL: Motor activity (Wistar rats [2]): 1000 / 1000 mg/kg bw/day
NOAEL: Nipple development (Wistar rats [2]): 1000 / 1000 mg/kg bw/day
NOAEL: No. of implantations, corpora lutea (Wistar rats [2]): 1000 / 1000 mg/kg bw/day
NOAEL: No. of live births (Wistar rats [2]): 1000 / 1000 mg/kg bw/day
NOAEL: No. of ovarian follicles (Wistar rats [2]): 1000 / 1000 mg/kg bw/day
NOAEL: Oestrus cyclicity (Wistar rats [2]): 1000 / 1000 mg/kg bw/day
NOAEL: Offspring: learning & memory (Wistar rats [2]): 1000 / 1000 mg/kg bw/day
NOAEL: Ovary HP (Wistar rats [2]): 1000 / 1000 mg/kg bw/day
NOAEL: Ovary weight (Wistar rats [2]): 1000 / 1000 mg/kg bw/day
NOAEL: Oviduct HP (Wistar rats [2]): 1000 / 1000 mg/kg bw/day
NOAEL: Pituitary HP (Wistar rats [2]): 1000 / 1000 mg/kg bw/day
NOAEL: Pituitary weight (Wistar rats [2]): 1000 / 1000 mg/kg bw/day
NOAEL: Postimplantation loss (Wistar rats [2]): 1000 / 1000 mg/kg bw/day
NOAEL: Pre-implantation loss (Wistar rats [2]): 1000 / 1000 mg/kg bw/day
NOAEL: Presence of anomalies (Wistar rats [2]): 1000 / 1000 mg/kg bw/day
NOAEL: Prostate HP (Wistar rats [2]): 1000 / 1000 mg/kg bw/day
NOAEL: Prostate weight (Wistar rats [2]): 1000 / 1000 mg/kg bw/day
NOAEL: Pup development (Wistar rats [2]): 1000 / 1000 mg/kg bw/day
NOAEL: Reproduction (Wistar rats [2]): 1000 / 1000 mg/kg bw/day
NOAEL: Seminal vesicles HP (Wistar rats [2]): 1000 / 1000 mg/kg bw/day
NOAEL: Seminal vesicles weight (Wistar rats [2]): 1000 / 1000 mg/kg bw/day
NOAEL: Testis HP (Wistar rats [2]): 1000 / 1000 mg/kg bw/day
NOAEL: Testis weight (Wistar rats [2]): 1000 / 1000 mg/kg bw/day
NOAEL: Thyroid HP (Wistar rats [2]): 1000 / 1000 mg/kg bw/day
NOAEL: Thyroid stimulating hormone level (Wistar rats [2]): 1000 / 1000 mg/kg bw/day
NOAEL: Thyroid weight (Wistar rats [2]): 1000 / 1000 mg/kg bw/day
NOAEL: Time to mating (Wistar rats [2]): 1000 / 1000 mg/kg bw/day
NOAEL: Triiodothyronine / thyroxine level (Wistar rats [2]): 1000 / 1000 mg/kg bw/day
NOAEL: Uterus HP (with cervix) (Wistar rats [2]): 1000 / 1000 mg/kg bw/day
NOAEL: Uterus weight (with cervix) (Wistar rats [2]): 1000 / 1000 mg/kg bw/day
NOAEL: Vagina HP (Wistar rats [2]): 1000 / 1000 mg/kg bw/day
NOAEL: Vaginal smears (Wistar rats [2]): 1000 / 1000 mg/kg bw/day
Rank of oestrogen receptor activation among shorter-chained parabens (oestrogen receptors): the least
Cytogenicity in mammalian cells classification (mammalian cells): Clastogenic with metabolic activation (OECD 473; 1987) [d]
NOAEL: No. of foetal deaths; viable foetuses (Wistar rats [3]; TG 414-like, highest dose): 550 mg/kg bw/day
No. of foetal deaths; viable foetuses (Wistar rats [3]; TG 414-like, up to 550 mg/kg bw/day): NAE / NAE
Triiodothyronine / thyroxine level (Wistar rats [3]; dams, TG 414-like, up to 550 mg/kg bw/day): NAE / NAE (dams)
NOAEL, developmental toxicity (Wistar rats [3]): NOAEL: 550 (highest dose tested) (similar to OECD 414; conducted 1972) mg/kg body weight/day
NOAEL, developmental toxicity (Wistar rats [3]; listed as methyl paraben): 550 mg/kg body weight/day
